Results as given in PubChem BioAssay AID330 (DTP/NCI, 2004).
Several values for one entry are separate records, joined by “and”; a condition that tells them apart may be missing. Identical values can stand only once. Toxic doses and inconclusive results are not listed.

System: P388 leukemia ip, CD2F1 mice, survival T/C
Assay: NCI In Vivo Anticancer Drug Screen. Data for tumor model P388 Leukemia (intraperitoneal) in CD2F1 (CDF1) mice
Details: endpoint: median survival time, higher = longer survival
How it was run: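 Mice carrying the transplanted tumor received test compound or vehicle. Survival was recorded in each group, and the value is the treated-group measurement divided by that of the vehicle-treated control group.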

[1] = dose: 15.0 mg/kg/injection, schedule: Q01DX005 (ip), vehicle: Klucel (hydroxypropylcellulose) (HPC)
[2] = dose: 30.0 mg/kg/injection, schedule: Q01DX005 (ip), vehicle: Klucel (hydroxypropylcellulose) (HPC)
[3] = dose: 60.0 mg/kg/injection, schedule: Q01DX005 (ip), vehicle: Klucel (hydroxypropylcellulose) (HPC)
[4] = dose: 50.0 mg/kg/injection, schedule: Q01DX005 (ip), vehicle: Klucel (hydroxypropylcellulose) (HPC)
[5] = dose: 100.0 mg/kg/injection, schedule: Q01DX005 (ip), vehicle: Klucel (hydroxypropylcellulose) (HPC)
[6] = dose: 200.0 mg/kg/injection, schedule: Q01DX005 (ip), vehicle: Klucel (hydroxypropylcellulose) (HPC)

`Cc1ccc(Cl)cc1NC(=O)OCCN(C)C(=O)Nc1cc(Cl)ccc1C` was tested, and the T/C [1] was 98 % of control, the T/C [2] was 90 % of control and the T/C [3] was 96 % of control.

In the case of `Cn1c(=O)oc2cc([N+](=O)[O-])c(Cl)cc21`, the T/C [4] is reported as 95 % of control and the T/C [5] is reported as 92 % of control.

In the case of `CCCCNC(C)C1(O)Cc2c(O)c3c(c(O)c2C(OC2CC(N)C(O)C(C)O2)C1)C(=O)c1c(OC)cccc1C3=O` (configuration not stated), the T/C (dose: 0.62 mg/kg/injection, schedule: Q01DX009 (ip), vehicle: water) is reported as 111 % of control, the T/C (dose: 10.0 mg/kg/injection, schedule: Q01DX009 (ip), vehicle: water) is reported as 158 % of control and 161 % of control and the T/C (dose: 20.0 mg/kg/injection, schedule: Q01DX009 (ip), vehicle: water) is reported as 172 % of control and 181 % of control. The T/C (dose: 40.0 mg/kg/injection, schedule: Q01DX009 (ip), vehicle: water) was 224 % of control and the T/C (dose: 80.0 mg/kg/injection, schedule: Q01DX009 (ip), vehicle: water) was 218 % of control.

`CN(C)c1ccc(/C=N/N=C(/C#N)[S][Sn]([S]/C(C#N)=N/N=C/c2ccc(N(C)C)cc2)([c]2ccccc2)[c]2ccccc2)cc1` was tested, and the T/C (dose: 7.5 mg/kg/injection, schedule: Q01DX005 (ip), vehicle: saline with Tween-80) was 112 % of control and the T/C (dose: 15.0 mg/kg/injection, schedule: Q01DX005 (ip), vehicle: saline with Tween-80) was 123 % of control.

For `O=c1cccc(C2CC(CO)C3CCCCN3C2)[nH]1` (configuration not stated), the T/C (dose: 1.1 mg/kg/injection, schedule: Q01DX009 (ip), vehicle: distilled water + Tween-80 + alcohol) was 86 % of control, the T/C (dose: 1.5 mg/kg/injection, schedule: Q01DX009 (ip), vehicle: acid diluted with CMC) was 96 % of control and the T/C (dose: 2.2 mg/kg/injection, schedule: Q01DX009 (ip), vehicle: acid diluted with CMC) was 99 % of control. For the same molecule, the T/C (dose: 2.2 mg/kg/injection, schedule: Q01DX009 (ip), vehicle: distilled water + Tween-80 + alcohol) was 93 % of control, the T/C (dose: 4.5 mg/kg/injection, schedule: Q01DX009 (ip), vehicle: acid diluted with CMC) was 96 % of control and the T/C (dose: 4.5 mg/kg/injection, schedule: Q01DX009 (ip), vehicle: distilled water + Tween-80 + alcohol) was 93 % of control. The T/C (dose: 9.0 mg/kg/injection, schedule: Q01DX009 (ip), vehicle: acid diluted with CMC) was 99 % of control and 93 % of control, the T/C (dose: 9.0 mg/kg/injection, schedule: Q01DX009 (ip), vehicle: distilled water + Tween-80 + alcohol) was 103 % of control and the T/C (dose: 18.0 mg/kg/injection, schedule: Q01DX009 (ip), vehicle: acid diluted with CMC) was 94 % of control.

In the case of `COC(=O)/C=C/c1cc(=O)n2c(nc3ccccc32)s1`, the T/C [1] is reported as 100 % of control, the T/C [2] is reported as 89 % of control and the T/C [3] is reported as 86 % of control.

For `C(=NCCC[Si]12OCCN(CCO1)CCO2)c1c[nH]c2ccccc12`, the T/C [4] was 104 % of control, the T/C [5] was 103 % of control and the T/C [6] was 102 % of control.

`COC(=O)c1c(/C(=N/Nc2ccc([N+](=O)[O-])cc2)[N+](=O)[O-])ssc1=N` was tested, and the T/C [4] was 103 % of control, the T/C [5] was 97 % of control and the T/C [6] was 103 % of control.

For `Cc1cc2ccccc2nc1-c1ccncc1`, the T/C (dose: 25.0 mg/kg/injection, schedule: Q04DX002 (ip), vehicle: Klucel (hydroxypropylcellulose) (HPC)) was 96 % of control, the T/C (dose: 50.0 mg/kg/injection, schedule: Q04DX002 (ip), vehicle: Klucel (hydroxypropylcellulose) (HPC)) was 96 % of control and the T/C (dose: 100.0 mg/kg/injection, schedule: Q04DX002 (ip), vehicle: Klucel (hydroxypropylcellulose) (HPC)) was 101 % of control. The T/C (dose: 200.0 mg/kg/injection, schedule: Q04DX002 (ip), vehicle: Klucel (hydroxypropylcellulose) (HPC)) was 103 % of control.

With `CCOC(=O)CC(=O)CC(C(=O)OCC)C(=O)OCC` the T/C (dose: 50.0 mg/kg/injection, schedule: Q01DX005 (ip), vehicle: saline with Tween-80) was 98 % of control, the T/C (dose: 100.0 mg/kg/injection, schedule: Q01DX005 (ip), vehicle: saline with Tween-80) was 104 % of control and the T/C (dose: 200.0 mg/kg/injection, schedule: Q01DX005 (ip), vehicle: saline with Tween-80) was 105 % of control.
